The text below walks through data of patent US20040171089A1, “High-throughput screening assay for identifying substances capable of modulating cell survival and/or proliferation” (priority 2001, published 2004).

Series [1] has as its system human primary microvascular endothelial cells. Kind of series: Fura-2 calcium imaging, microvascular endothelial cells. The note with it: microvascular endothelial cells; FIG. 2b: IPAG 10 μM, rimcazole 10-30 μM, (+)-pentazocine 10-30 μM. The class given is cell-based. The procedure: Human adult dermal microvascular endothelial cells (catalogue number CC-2543; cells had been characterised by tests for cell type markers: positive for acetylated LDL uptake, positive for factor VIII related antigen, negative for alpha smooth muscle actin)
(§1) For calcium imaging experiments cells were plated onto poly-L-lysine coated coverslips (13 mm). Single cell imaging was performed utilizing a MiraCal Imaging facility (Life Science Resources, Cambridge, U.K.) with a Nikon Diaphot-TMD inverted epifluorescence microscope equipped with a ×40 oil immersion objective and Sutter filter wheel. The imager was equipped with a Lambert intensifier 1187 (Life Sciences Resources) providing a ×30 enhancement of the fluorescent signal, thus limiting phototoxicity.
(§2) Fura-2 acetoxymethyl ester (fura-2 AM) incubations with the cells were performed at 37° C. in a medium containing (in mM): 120 NaCl, 3.5 KCl, 0.4 KH2PO4, 5 NaHCO3, 1.2 Na2SO4, 15 glucose, 1.2 MgCl2, 1 CaCl2, and 20 TES [N-tris(hydroxymethyl) methyl-2-aminoethane sulphonic acid] pH adjusted to 7.4 with NaOH. Typically cells were incubated in 3 μM fura-2 AM for 25 min., which permitted sufficient accumulation of free fura-2 in the cell cytoplasm. Cells were then illuminated alternately at 340 and 380 nm with the emitted 505 nm light being detected by a photomultiplier. Free fura emits maximally when excited at 380 nm, whilst the calcium bound fura has a maximal emission when excited at 340 nm. Thus the ratio of emission when alternately excited at 340/380 nm is a measure of the calcium concentration in equilibrium with the chelator. Changes of intracellular calcium were quantified as the percentage increase of the fluorescent ratio (determined at ˜505 nm) obtained by exciting the test cells alternatively at 340 nm (optimal for calcium bound dye) and 380 nm.

Series [2] has as its system microvascular endothelial cells. The note with it: equimolar, 10 micromolar, GB0007842.8, WO 0174359; cited from earlier work.
Series [3] relates to MDA MB 468 cells. Kind of series: Fura-2 calcium imaging, MDA MB 468 cells. The class given is cell-based, human. The note with it: for % increase of cytosolic calcium (peak 340/380 nm fura-2 ratio): MDA 468 cells; for effect on cytosolic calcium levels (in words): MDA MB 468 cells, FIG. 2a: IPAG 1-10 μM, rimcazole 10-30 μM, (+)-SKF 10,047 10 μM, (+)-pentazocine 10-30 μM, ibogaine 10-50 μM. The procedure:
Human mammary carcinoma (MDA MB 468) cells were obtained from ATCC, Manassas, Va., USA; catalogue number HTB-132; cells were grown in accordance with the manufacturer's instructions.
as §1, §2

Series [4] concerns MDA MB 468 cells. Kind of series: MTS cell viability/proliferation assay, MDA MB 468 cells. Format: cell-based, human. Conditions: MDA 468 cells; 1-10 μM. As to the method: (§3) This was carried out using an MTS assay (reagents from Promega Corporation, Madison Wis., USA) which is a modification of the MTT assay (as described in Jacobson et al, 1994 EMBO J Vol 13 pp1899-1910). The assay depends on conversion of the MTS tetrazolium compound to a coloured formazan product in metabolically active cells; it is therefore an assay of viable cell number. A decline in values implies cell killing as long as cell disappearance by apoptosis in untreated cell populations is absent or negligible (as with most healthy primary cell populations).
(§4) Cells were seeded in the range 1.5×10^5-1.8×10^5 cells per ml of culture medium in 96 well microtitre plates and allowed to attach in a humidifed atmosphere of 5% CO2 in air at 37 deg C. Drugs were added 18-24 hours later and cell viability/proliferation measured at time intervals up to 48-72 hours post-drug addition when the experiment was terminated. Mean (±SE) values at each time point were obtained from wells in triplicate.
(§5) Cell viability was measured as follows: 20 μl of MTS solution (Promega) was added to wells and incubated at 37 deg C. for 3 hours during which time a coloured formazan product is generated in viable cells. […] Viable cell number was then measured by reading absorbance at 490 nm in a Dynex microtitre plate reader. […]

In series [5] the test system is phospholipase C. Kind of series: Quantitative HPLC assay of inositol phosphates (IP3 levels) in MDA MB 468 cells. Conditions: [3H] inositol labelled cells. Format: cell-based, human. The text has this:
The PH domain of PLC delta 1 has a higher affinity for the phosphoinositide IP3 compared to PIP2. IP3 is produced from PIP2 in response to activation of PLC. Since PIP2 is membrane-bound whereas IP3 is cytosolic, the activation of PLC can be visualised in living cells by the relocalisation of GFP-PH PLC delta 1 from membrane to cytosol. A proviso to this interpretation is that, in conditions where PIP2 levels decline relative to IP3, the net effect would be relocalisation of GFP-PH PLC delta 1 from membrane to cytosol. Thus, to exclude this possibility, quantitative phospholipid assays were performed. (In this analysis, cells were labelled with [^3H] inositol in inositol-free DMEM (In Vitrogen—Gibco) with dialysed FBS for 48 hours before exposure to sigma ligands. Cells were then lysed and subjected to quantitative HPLC assay). These assays confirmed that IP3 levels had risen in cells exposed to sigma antagonists (IP3 levels had risen to 240% and 166% of the level prior to provision of the test substance in response to IPAG and rimcazole respectively) but had not risen in cells exposed to sigma-1 or sigma-2 agonists. This confirmed activation of PLC by sigma antagonists.

The test system of series [6] is sigma-1 compared to sigma-2 sites. Conditions: Abou-Gharbia et al 1993; cited from earlier work.
A further series deals with adult dermal fibroblasts. Description: MTS cell viability/proliferation assay, adult dermal fibroblasts. Format: cell-based, human. Conditions: 1-10 μM. The procedure:
as §3, §4, §5

A further series concerns mammary epithelial cells. Description: MTS cell viability/proliferation assay, mammary epithelial cells. The class given is cell-based, human. The note with it: 1-10 μM. As to the method: Human mammary epithelial cells (catalogue number CC-2551; stain positive for cytokeratins 14, 18 and 19)
as §3
Cells were seeded in the range 1.5×10^5-1.8×10^5 cells per ml of culture medium in 96 well microtitre plates and allowed to attach in a humidifed atmosphere of 5% CO2 in air at 37 deg C. Drugs were added 18-24 hours later and cell viability/proliferation measured at time intervals up to 48-72 hours post-drug addition when the experiment was terminated. […]
as §5

In series [7] the test system is microvascular endothelial cells. Kind of series: MTS cell viability/proliferation assay, microvascular endothelial cells. The class given is cell-based, human. Conditions: 1-10 μM. The procedure:
as §3, §4, §5

Series [8] has as its system human prostate epithelial cells. Description: MTS cell viability/proliferation assay, prostate epithelial cells. Format: cell-based. The note with it: 1-10 μM. The procedure: as §3, §4, §5
Series [9] has as its system phospholipase C. Description: GFP-PH PLCdelta 1 relocalisation (PLC activation) in MDA MB 468 cells. The class given is cell-based, human. Conditions: for relocalisation of GFP-PH PLC delta 1 from membrane to cytosol: 100 μM, approximately 10 minutes, DMEM with 10% fetal bovine serum.
From the text: The inventors introduced a recombinant plasmid vector encoding a hybrid protein comprised of the pleckstrin homology (PH) domain of phospholipase C (PLC) delta 1 fused green fluorescent protein (GFP) (GFP-PH PLCdelta 1) into MDA MB 468 mammary carcinoma cells. A standard transfection method (Fugene-6—Roche) was used. […] Cells were maintained in DMEM with 10% fetal bovine serum at 37 deg C. in 5% CO2 before and during exposure to sigma ligands which were present at a range of concentrations. Effects on the GFP-PH PLCdelta 1 protein were studied in two ways: by time lapse microscopy (using a Leica inverted fluorescence microscope and a Hammamatsu Orca charge-coupled device camera, linked to an Improvision Open Lab image processing workstation). This enabled the time course of effects to be determined. […] Control cell populations received drug vehicle alone and were analysed at the same time points.
GFP-PH PLC delta 1—expressing MDA MB 468 cells were exposed to sigma antagonists in 1 mM and 0 mM (nominally calcium-free) buffer (as used for the calcium imaging experiments, described above) and monitored by time lapse imaging as above.

“Also recorded” adds a separate entry of the source.

Regarding `CC(C)=CCN1CCC2(C)c3cc(O)ccc3CC1C2C` (single isomer, unassigned; (+)) [(+)-pentazocine], in series [1], the “increase in cytosolic calcium” value was “little or no effect”. Further, the “prevention of rimcazole- and IPAG-induced death and cytostasis” value in series [2] is “completely prevented”. The “% increase of cytosolic calcium (peak 340/380 nm fura-2 ratio)” value is 5±7% with MDA MB 468 cells [3] (10 μM) and −7±6% in the series with MDA MB 468 cells [3] (30 μM). Moreover, in the series with MDA MB 468 cells [3], the “effect on cytosolic calcium levels (in words)” value is reported as “little or no rise; also recorded: little or no effect”.
As to (+)-SKF 10,047, the figures for the “effect on cytosolic calcium levels (in words)” value with MDA MB 468 cells [3] and with MDA MB 468 cells [3] (listed as (+)-SKF-10,047) were “little or no effect” and “little or no rise”, respectively.
In the case of `C[C@@H]1CN(CCCn2c3ccccc3c3ccccc32)C[C@H](C)N1` [rimcazole], the Cytotoxicity result in the series with MDA MB 468 cells [4] is reported as “cytotoxic”; with adult dermal fibroblasts, “not cytotoxic”; with mammary epithelial cells, “not cytotoxic”; in series [7], “cytotoxic”; in series [8] it was “not cytotoxic”. Moreover, in the series with phospholipase C [5], the “IP3 levels, % of the level prior to provision of the test substance” value is reported as 166%. In [6], the “selectivity for sigma-1 compared to sigma-2 sites” value is listed as “approximately 5 fold”. In addition, in the series with MDA MB 468 cells [3] (30 μM), the “% increase of cytosolic calcium (peak 340/380 nm fura-2 ratio)” value was found to be 92±8%. In the series on MDA MB 468 cells [3], the “effect on cytosolic calcium levels (in words)” value is reported as “increase cytosolic calcium levels”. For the same molecule, the “relocalisation of GFP-PH PLC delta 1 from membrane to cytosol” value in the series on phospholipase C [9] is listed as “pronounced relocalisation”. Also, the “localisation of GFP-PH PLC delta 1” value in the series with phospholipase C [9] (nominally calcium-free buffer (0 mM calcium)) is listed as “remained membrane-localised”.
Take ibogaine: the “effect on cytosolic calcium levels (in words)” value in the series on MDA MB 468 cells [3] was “little or no rise; also recorded: fails to induce a significant rise”. Further, in the series with phospholipase C [9], the “relocalisation of GFP-PH PLC delta 1 from membrane to cytosol” value is on record as “failed to produce this effect”.
